Measurements from patent US20080032952A1, “Combination Therapies Employing Nicotinic Acid Derivatives or Fibric Acid Derivatives” (priority 2004, published 2008).

System: patients who underwent percutaneous coronary intervention (PCI)
Assay type: in vivo
Method: Data collection and statistical analyses—Patients who received ≧1 dose of the study drug and underwent PCI were analyzed for all primary and secondary efficacy and safety end points. […] Statistical tests were 2-sided with an a level of 0.05 and employed the intent-to-treat principle. The Wilcoxon rank-sum test was used. Due to small sample sizes, categorical variables were compared using the Fisher's exact test with the exception of the ST-segment monitoring data, which utilized the Pearson's chi-square test. Statistical analyses were performed using SAS version 8.2 (SAS Institute, Cary, N.C.).

Cc1ncc(COP(=O)(O)O)c(C=O)c1O [P5P, pyridoxal 5′-phosphate]
median periprocedural CK-MB area under the curve (periprocedural infarct size) (10 mg/kg oral ≧4 hours before PCI, then 5 mg/kg twice daily, CK-MB over 24 hours, p=0.038 vs placebo): 18.6 ng/mL
rate of post-PCI ischemia (continuous ST monitoring within 24 hours after PCI, p=0.78 vs placebo): 14.7%
